# Source: US20060205819A1, “Methods of treatment inflammatory bowel with lxr agonists” (priority 2003, published 2006)
# Read-outs that look alike come from different tables or passages of the source. Marks after values point to notes of the source that are not given here.
# Experiments:
# LXRβ protein = biological target: T1, LXRβ protein (Homo sapiens, UniProt P55055); assay: LXRβ / SRC-1 peptide fluorescence assay (streptavidin-APC / Europium); type: biochemical; settings: 1 μM; over a background reading of 10000 fluorescence units
# T1 sequence (P55055 1-460): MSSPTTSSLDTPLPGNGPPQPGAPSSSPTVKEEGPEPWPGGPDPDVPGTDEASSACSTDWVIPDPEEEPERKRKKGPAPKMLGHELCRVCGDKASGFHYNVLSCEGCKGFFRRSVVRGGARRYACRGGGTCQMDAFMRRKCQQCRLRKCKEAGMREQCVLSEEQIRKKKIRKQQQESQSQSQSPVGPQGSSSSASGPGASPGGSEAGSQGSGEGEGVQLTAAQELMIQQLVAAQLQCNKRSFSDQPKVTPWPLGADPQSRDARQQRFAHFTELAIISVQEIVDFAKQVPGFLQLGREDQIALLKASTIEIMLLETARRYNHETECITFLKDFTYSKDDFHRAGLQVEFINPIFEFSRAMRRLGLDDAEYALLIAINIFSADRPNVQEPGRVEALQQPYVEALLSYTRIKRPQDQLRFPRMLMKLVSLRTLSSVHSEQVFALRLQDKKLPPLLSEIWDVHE
# Procedure: Other LXR agonists may be identified by assays such as those described in the above referenced patent applications, for example, the assays described in Examples 1 and 2 of PCT/US01/27622. Biotinylated LXRβ protein was incubated for 20-25 minutes at a concentration of 25 nM in assay buffer (50 mM KCl, 50 mM Tris-pH8, 0.1 mg/ml FAF-BSA, 10 mM DTT) with equimolar amounts of streptavidin-AlloPhycoCyanin (APC, Molecular Probes). At the same time, the biotinylated peptide comprising amino acids 675-699 of SRC-1 ([…]-CONH2) (SEQ ID NO: 5) at a concentration of 25 nM was incubated in assay buffer with a […] of streptavidin-labelled Europium (Wallac) for 20-25 minutes. After the initial incubations are completed, a 10 molar excess (250 nM) of cold biotin was added to each of the solutions to block the unattached streptavidin reagents. After 20 min at room temp, the solutions were mixed yielding a concentration of 12.5 nM for the dye-labelled LXRβ protein and SRC-1 peptide.
# 80 μL of the protein/peptide mixture was added to each well of an assay plate containing 20 μL of test compound. […] The plates were incubated at room temp in the dark for 4-12 hours and then counted on a Wallac Victor fluorescent plate reader. In this assay 1 μM 24(S), 25-epoxycholesterol gave a reading of 20000 fluorescence units over a background reading of 10000 fluorescence units. […]
# DSS-induced colitis = DSS-induced colitis in mice, disease activity index (DAI) AUC; type: in vivo, BALB/c mice; settings: for severity of DSS-induced colitis: p.o.; for AUC (0-12 day) / AUC (3-7 day) / AUC (7-10 day) / AUC (10-12 day): DAI curve AUC, 3% DSS mice, mean +/- SE; for inhibition at 3 mg/kg / inhibition at 10 mg/kg / inhibition at 30 mg/kg: Mus musculus, po, vs DSS + vehicle; for inhibition at 3 mg/kg: 3 mg/kg p.o. b.i.d.; for inhibition at 10 mg/kg: 10 mg/kg p.o. b.i.d.; for inhibition at 30 mg/kg: 30 mg/kg p.o. b.i.d.
# Procedure: Female, 10-week-old BALB/c mice (Charles River Japan) were used in this study. Colitis was induced by providing drinking water containing 3% dextran sulfate sodium (DSS, ICN Biomedicals Inc., M.W.=36,000-50,000) for 5 days. The administration of DSS was discontinued on day 5, and mice were given tap water alone for 7 days until on day 12.
# The disease activity index (DAI) was determined in all animals, by scoring body weight, stool consistency and rectal bleeding as described by Murthy, S. N. S. (Digestive Diseases and Sciences, 38(9) p. 1722-1734(1993)). Severity of colitis was evaluated by area under the curve (AUC) calculated based on DAI curve ranged from day 3 to day 7 (AUC (3-7 day)), from day 7 to day 10 (AUC (7-10 day)), from day 10 to day 12 (AUC (10-12 day)) and from day 0 to day 12 (AUC (0-12 day)).
# Ten mice were used in each group. Compound IIa and Compound Ia were suspended in 0.5% methylcellulose (MC) solution. Compound IIa 3 or 10 or 30 mg/kg or its vehicle (0.5% MC solution) was administered orally twice a day for 12 days from day 0. Compound Ia at 50 mg/kg was administered orally once a day for 12 days from day 0. The experimental groups were set up as follows:
# • 3% DSS+vehicle (0.5% MC solution) 3% DSS+Compound IIa (3 mg/kg) 3% DSS+Compound IIa (10 mg/kg) 3% DSS+Compound IIa (30 mg/kg) 3% DSS+Compound Ia (50 mg/kg) * Mice which received tap water without DSS.
# [1] = read-out: Inhibition (%) of AUC (0-12 day)
# [2] = read-out: Inhibition (%) of AUC (3-7 day)
# [3] = read-out: Inhibition (%) of AUC (7-10 day)
# [4] = read-out: Inhibition (%) of AUC (10-12 day)
compound,measurement,setting,value
"C[C@H](CC[C@@H]1OC1(C)C)[C@H]1CC[C@H]2[C@@H]3CC=C4C[C@@H](O)CC[C@]4(C)[C@H]3CC[C@]12C [24(S), 25-epoxycholesterol]",reading,LXRβ protein,20000 fluorescence units
"O=C(O)Cc1cccc(OCCCN(Cc2cccc(C(F)(F)F)c2Cl)CC(c2ccccc2)c2ccccc2)c1 [Compound IIa, 2-(3-{3-[[2-Chloro-3-(trifluoromethyl)benzyl](2,2-diphenylethyl)amino]propoxy}-phenyl)acetic acid]",severity of DSS-induced colitis,"DSS-induced colitis; 3, 10 and 30 mg/kg, b.i.d., significantly lower AUC compared with vehicle-treated DSS-fed mice",suppressed the severity of DSS-induced colitis
same,AUC (0-12 day),DSS-induced colitis; 3 mg/kg p.o. b.i.d. 12 days,14.02 +/− 1.56
same,AUC (3-7 day),DSS-induced colitis; 3 mg/kg p.o. b.i.d. 12 days,4.93 +/− 0.38**
same,AUC (7-10 day),DSS-induced colitis; 3 mg/kg p.o. b.i.d. 12 days,5.05 +/− 0.75
same,AUC (10-12 day),DSS-induced colitis; 3 mg/kg p.o. b.i.d. 12 days,2.73 +/− 0.55
same,AUC (0-12 day),DSS-induced colitis; 10 mg/kg p.o. b.i.d. 12 days,11.25 +/− 1.42**
same,AUC (3-7 day),DSS-induced colitis; 10 mg/kg p.o. b.i.d. 12 days,4.60 +/− 0.40**
same,AUC (7-10 day),DSS-induced colitis; 10 mg/kg p.o. b.i.d. 12 days,3.70 +/− 0.62*
same,AUC (10-12 day),DSS-induced colitis; 10 mg/kg p.o. b.i.d. 12 days,1.70 +/− 0.37
same,AUC (0-12 day),DSS-induced colitis; 30 mg/kg p.o. b.i.d. 12 days,11.70 +/− 1.32*
same,AUC (3-7 day),DSS-induced colitis; 30 mg/kg p.o. b.i.d. 12 days,4.70 +/− 0.36**
same,AUC (7-10 day),DSS-induced colitis; 30 mg/kg p.o. b.i.d. 12 days,3.94 +/− 0.62
same,AUC (10-12 day),DSS-induced colitis; 30 mg/kg p.o. b.i.d. 12 days,1.67 +/− 0.44
same,inhibition at 3 mg/kg,DSS-induced colitis; [1],22%
same,inhibition at 3 mg/kg,DSS-induced colitis; [2],28.2%
same,inhibition at 3 mg/kg,DSS-induced colitis; [3],20.5%
same,inhibition at 3 mg/kg,DSS-induced colitis; [4],14.7%
same,inhibition at 10 mg/kg,DSS-induced colitis; [1],37.4%
same,inhibition at 10 mg/kg,DSS-induced colitis; [2],33%
same,inhibition at 10 mg/kg,DSS-induced colitis; [3],41.7%
same,inhibition at 10 mg/kg,DSS-induced colitis; [4],46.9%
same,inhibition at 30 mg/kg,DSS-induced colitis; [1],34.9%
same,inhibition at 30 mg/kg,DSS-induced colitis; [2],31.6%
same,inhibition at 30 mg/kg,DSS-induced colitis; [3],38%
same,inhibition at 30 mg/kg,DSS-induced colitis; [4],47.8%
O=S(=O)(c1ccccc1)N(CC(F)(F)F)c1ccc(C(O)(C(F)(F)F)C(F)(F)F)cc1 [Compound Ia],severity of DSS-induced colitis,"DSS-induced colitis; 50 mg/kg, q.d., significant lower AUC (3-7 day) and AUC (0-12 day) compared with vehicle-treated DSS-fed mice",inhibited the severity of DSS-induced colitis
same,AUC (0-12 day),DSS-induced colitis; 50 mg/kg p.o. q.d. 12 days,12.33 +/− 1.40*
same,AUC (3-7 day),DSS-induced colitis; 50 mg/kg p.o. q.d. 12 days,4.80 +/− 0.38**
same,AUC (7-10 day),DSS-induced colitis; 50 mg/kg p.o. q.d. 12 days,4.25 +/− 0.72
same,AUC (10-12 day),DSS-induced colitis; 50 mg/kg p.o. q.d. 12 days,1.98 +/− 0.45
